Assay results: US20220089575A1, “FARNESOID X RECEPTOR AGONISTS AND USES THEREOF” (Metacrine, Inc., priority 2017, published 2022)

The compounds below were run against T1, hFXR (Homo sapiens, UniProt Q96RI1) (assay: In Vitro FXR Assay (TK): TK-ECRE-luc reporter in transfected CV-1 cells). Conditions: 18 hrs, luminescence, maximum efficacy of <25% of the Fexarmine control classified as '+'.
T1 construct: expressed in transfected cells; host or cells: CV-1 cells
T1 sequence (Q96RI1 1-486): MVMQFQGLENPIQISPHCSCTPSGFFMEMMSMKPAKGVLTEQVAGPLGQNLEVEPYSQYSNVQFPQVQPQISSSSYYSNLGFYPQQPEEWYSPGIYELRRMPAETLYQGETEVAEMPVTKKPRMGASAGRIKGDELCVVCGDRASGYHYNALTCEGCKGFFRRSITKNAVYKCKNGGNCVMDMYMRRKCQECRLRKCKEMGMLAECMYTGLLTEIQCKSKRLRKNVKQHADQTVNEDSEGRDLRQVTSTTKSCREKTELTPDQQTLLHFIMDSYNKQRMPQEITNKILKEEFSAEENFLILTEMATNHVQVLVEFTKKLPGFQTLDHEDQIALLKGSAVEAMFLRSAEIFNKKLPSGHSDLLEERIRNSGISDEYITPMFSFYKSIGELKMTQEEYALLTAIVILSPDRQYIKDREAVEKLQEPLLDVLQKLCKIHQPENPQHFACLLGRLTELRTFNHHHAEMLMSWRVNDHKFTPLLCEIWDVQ
T1 sequence (P19793 1-462 partner): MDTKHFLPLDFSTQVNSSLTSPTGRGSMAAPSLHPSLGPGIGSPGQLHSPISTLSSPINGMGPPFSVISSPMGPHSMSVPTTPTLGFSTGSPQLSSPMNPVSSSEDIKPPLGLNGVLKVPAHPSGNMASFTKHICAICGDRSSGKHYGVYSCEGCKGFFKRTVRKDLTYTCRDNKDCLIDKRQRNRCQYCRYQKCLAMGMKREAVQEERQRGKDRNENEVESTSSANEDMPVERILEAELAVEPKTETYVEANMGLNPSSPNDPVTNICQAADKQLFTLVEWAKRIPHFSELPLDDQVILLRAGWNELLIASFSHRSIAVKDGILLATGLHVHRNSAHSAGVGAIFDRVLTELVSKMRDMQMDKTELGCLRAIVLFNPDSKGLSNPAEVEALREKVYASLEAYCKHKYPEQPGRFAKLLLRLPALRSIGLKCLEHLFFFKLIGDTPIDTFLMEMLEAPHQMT
Type: cell-based
Method in brief: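 Transiently transfected monkey CV-1 cells (hFXR, hRXR, TK-ECRE-luciferase, YFP control plasmid), held in stripped-serum DMEM, received compound dilutions from DMSO for 18 h at 37 °C. Activity was taken from luminescence of the cell lysates.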
Compound `COC(=O)N[C@H]1CC[C@H](C(=O)N(C[C@H]2CC[C@H](c3ccc(OC)c(C)c3)CC2)c2cccc(-c3cnc(OC)s3)c2)CC1` [Compound 25.05, Methyl (trans-4-(((trans-4-(4-methoxy-3-methylphenyl)cyclohexyl)methyl)(3-(2-methoxythiazol-5-yl)phenyl)carbamoyl)cyclohexyl) carbamate] has an EC50 of no more than 250 nM.
In the case of `CNC(=O)OCC(=O)N[C@H]1CC[C@H](C(=O)N(C[C@H]2CC[C@H](c3ccc(OC)c(C)c3)CC2)c2cccc(-c3cnc(C4CC4)s3)c2)CC1` [Compound 25.15, 2-((trans-4-((3-(2-Cyclopropylthiazol-5-yl)phenyl)((trans-4-(4-methoxy-3-methylphenyl)cyclohexyl)methyl)carbamoyl)cyclohexyl)amino)-2-oxoethyl methylcarbamate], the EC50 is reported as no more than 250 nM.
With `CNC(=O)O[C@H]1CC[C@H](C(=O)N(CC23CCC(c4ccc(N(C)C)nc4)(CC2)CC3)c2cccc(-c3cnn(C4CC4)c3)c2)CC1` [Compound 3.03, 4-((3-(1-Cyclopropyl-1H-pyrazol-4-yl)phenyl)((4-(6-(dimethylamino)pyridin-3-yl)bicyclo[2.2.2]octan-1-yl)methyl)carbamoyl)cyclohexyl trans-methylcarbamate] the EC50 was no more than 250 nM.
In the case of `CNC(=O)O[C@H]1CC[C@H](C(=O)N(C[C@H]2CC[C@H](c3ccc4c(c3)c(F)nn4C)CC2)c2cccc(-c3cnc(C4CC4)s3)c2)CC1` [Compound 1.03, trans-4-((3-(2-Cyclopropylthiazol-5-yl)phenyl)((trans-4-(3-fluoro-1-methyl-1H-indazol-5-yl)cyclohexyl)methyl)carbamoyl)cyclohexyl methylcarbamate], the EC50 is reported as no more than 250 nM.
`CCOC1CN(C(=O)O[C@H]2CC[C@H](C(=O)N(C[C@H]3CC[C@H](c4ccc(OC)c(C)n4)CC3)c3cc(-c4coc(C5CC5)n4)ccn3)CC2)C1` [Compound 7.87, trans-4-((4-(2-Cyclopropyloxazol-4-yl)pyridine-2-yl)((trans-4-(5-methoxy-6-methylpyridin-2-yl)cyclohexyl)methyl)carbamoyl)cyclohexyl 3-ethoxyazetidine-1-carboxylate] showed an EC50 of no more than 250 nM.
In the case of `COc1ccc([C@H]2CC[C@H](CN(c3cc(-c4coc(C5CC5)n4)ccn3)C(=O)[C@H]3CC[C@H](C(=O)O)CC3)CC2)cc1C` [Compound 18.02, trans-4-((4-(2-Cyclopropyloxazol-4-yl)pyridine-2-yl)((trans-4-(4-methoxy-3-methylphenyl)cyclohexyl)methyl)carbamoyl)cyclohexanecarboxylic acid], the EC50 is reported as no more than 250 nM.
With `COc1ccc([C@H]2CC[C@H](CN(c3cc(-c4coc(C(C)C)n4)ccn3)C(=O)[C@H]3CC[C@H](OC(=O)N4CC(S(C)(=O)=O)C4)CC3)CC2)nc1C` [Compound 6.75, trans-4-((4-(2-Isopropyloxazol-4-yl)pyridine-2-yl)((trans-4-(5-methoxy-6-methylpyridin-2-yl)cyclohexyl)methyl)carbamoyl)cyclohexyl 3-(methylsulfonyl)azetidine-1-carboxylate] the EC50 was no more than 250 nM.
With `CN(C)c1ccc([C@H]2CC[C@H](CN(c3cccc(-c4coc(C5CC5)n4)c3)C(=O)[C@H]3CC[C@H](CC(=O)O)CC3)CC2)cn1` [Compound 21.06, 2-(trans-4-((3-(2-Cyclopropyloxazol-4-yl)phenyl)((trans-4-(6-(dimethylamino)pyridin-3-yl)cyclohexyl)methyl)carbamoyl)cyclohexyl) acetic acid] the EC50 was no more than 250 nM.
With `CNC(=O)N[C@H]1CC[C@H](C(=O)N(C[C@H]2CC[C@H](c3ccc(OC)c(C)c3)CC2)c2cccc(-c3cnc(C4CC4)s3)c2)CC1` [Compound 26.36, trans-N-(3-(2-Cyclopropylthiazol-5-yl)phenyl)-N-((trans-4-(4-methoxy-3-methylphenyl)cyclohexyl)methyl)-4-(3-methylureido)cyclohexanecarboxamide] the EC50 was no more than 250 nM.
`COc1ccc([C@H]2CC[C@H](CN(c3cc(-c4cnn(C5CC5)c4)ccn3)C(=O)[C@H]3CC[C@H](OC(=O)N4CC(O)C4)CC3)CC2)nc1C` [Compound 7.24, trans-4-((4-(1-Cyclopropyl-1H-pyrazol-4-yl)pyridin-2-yl)((trans-4-(5-methoxy-6-methylpyridin-2-yl)cyclohexyl)methyl)carbamoyl)cyclohexyl 3-hydroxyazetidine-1-carboxylate] was tested, and the EC50 was no more than 250 nM.
Compound `CNC(=O)O[C@H]1CC[C@H](C(=O)N(C[C@H]2CC[C@H](c3ccc(OC)c(C)n3)CC2)c2cccc(-c3cnn(C(C)C)c3)c2)CC1` [Compound 1.10, trans-4-((3-(1-Isopropyl-1H-pyrazol-4-yl)phenyl)((trans-4-(5-methoxy-6-methylpyridin-2-yl)cyclohexyl)methyl)carbamoyl)cyclohexyl methylcarbamate] has an EC50 of no more than 250 nM.
`COc1ccc([C@H]2CC[C@H](CN(c3cccc(-c4coc(C(C)C)n4)c3)C(=O)[C@H]3CC[C@H](OC(=O)N4CC(O)C4)CC3)CC2)nc1C` [Compound 7.65, trans-4-((3-(2-Isopropyloxazol-4-yl)phenyl)((trans-4-(5-methoxy-6-methylpyridin-2-yl)cyclohexyl)methyl)carbamoyl)cyclohexyl 3-hydroxyazetidine-1-carboxylate] gave an EC50 of no more than 250 nM.
For `COc1ccc([C@H]2CC[C@H](CN(c3cc(-c4coc(C5CC5)n4)ccn3)C(=O)[C@H]3CC[C@H](OC(=O)N4CC(CC(=O)O)C4)CC3)CC2)nc1C` [Compound 7.86, 2-(1-(((trans-4-((4-(2-Cyclopropyloxazol-4-yl)pyridine-2-yl) ((trans-4-(5-methoxy-6-methylpyridin-2-yl)cyclohexyl)methyl)carbamoyl)cyclohexyl)oxy)carbonyl)azetidin-3-yl)acetic acid], the EC50 was 250 to 1000 nM.
Work on `CCC1CN(C(=O)O[C@H]2CC[C@H](C(=O)N(C[C@H]3CC[C@H](c4ccc(OC)c(C)n4)CC3)c3cc(-c4coc(C(C)C)n4)ccn3)CC2)C1` [Compound 7.100, trans-4-((4-(2-Isopropyloxazol-4-yl)pyridine-2-yl)((trans-4-(5-methoxy-6-methylpyridin-2-yl)cyclohexyl)methyl)carbamoyl)cyclohexyl 3-ethylazetidine-1-carboxylate] yielded an EC50 of no more than 250 nM.
`CNC(=O)O[C@H]1CC[C@H](C(=O)N(C[C@H]2CC[C@H](c3ccc(OC)c(C)c3)CC2)c2cccc(-c3coc(C(C)C)n3)c2)CC1` [Compound 5.30, trans-4-((3-(2-Isopropyloxazol-4-yl)phenyl)((trans-4-(4-methoxy-3-methylphenyl)cyclohexyl)methyl)carbamoyl)cyclohexyl methylcarbamate] gave an EC50 of no more than 250 nM.
Compound `COc1ccc([C@H]2CC[C@H](CN(c3cccc(-c4cnn(C5CC5)c4)c3)C(=O)[C@H]3CC[C@H](OC(=O)N4CC[S+]([O-])CC4)CC3)CC2)cc1C` [Compound 7.29, trans-4-((3-(1-Cyclopropyl-1H-pyrazol-4-yl)phenyl)((trans-4-(4-methoxy-3-methylphenyl)cyclohexyl)methyl)carbamoyl)cyclohexyl thiomorpholine-4-carboxylate 1-oxide] has an EC50 of no more than 250 nM.
Compound `COC(=O)NCCNC(=O)O[C@H]1CC[C@H](C(=O)N(C[C@H]2CC[C@H](c3ccc(OC)c(C)c3)CC2)c2cccc(-c3cnn(C4CC4)c3)c2)CC1` [Compound 26.25, trans-4-((3-(1-Cyclopropyl-1H-pyrazol-4-yl)phenyl)((trans-4-(4-methoxy-3-methylphenyl)cyclohexyl)methyl)carbamoyl)cyclohexyl methyl ethane-1,2-diyldicarbamate] has an EC50 of no more than 250 nM.
`COC(=O)NCC(=O)N[C@H]1CC[C@H](C(=O)N(C[C@H]2CC[C@H](c3ccc(OC)c(C)c3)CC2)c2cccc(-c3cnc(C4CC4)s3)c2)CC1` [Compound 31.05, Methyl (2-((trans-4-((3-(2-cyclopropylthiazol-5-yl)phenyl)((trans-4-(4-methoxy-3-methylphenyl)cyclohexyl)methyl)carbamoyl)cyclohexyl)amino)-2-oxoethyl)carbamate] was tested, and the EC50 was no more than 250 nM.
For `COCCN(C)C(=O)O[C@H]1CC[C@H](C(=O)N(C[C@H]2CC[C@H](c3ccc(OC)c(C)c3)CC2)c2cccc(-c3cnn(C4CC4)c3)c2)CC1` [Compound 6.26, trans-4-((3-(1-Cyclopropyl-1H-pyrazol-4-yl)phenyl)((trans-4-(4-methoxy-3-methylphenyl)cyclohexyl)methyl)carbamoyl)cyclohexyl (2-methoxyethyl) (methyl)carbamate], the EC50 was no more than 250 nM.
`COc1ccc([C@H]2CC[C@H](CN(c3cc(-c4cnn(C(C)C)c4)ccn3)C(=O)[C@H]3CC[C@H](OC(=O)NC(C)C)CC3)CC2)nc1C#N` [Compound 6.32, trans-4-(((trans-4-(6-Cyano-5-methoxypyridin-2-yl)cyclohexyl)methyl) (4-(1-isopropyl-1H-pyrazol-4-yl)pyridin-2-yl)carbamoyl)cyclohexyl isopropylcarbamate] was tested, and the EC50 was no more than 250 nM.
